Results from PubChem BioAssay (NCI).
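The concentration for 50% growth inhibition is given as GI50. TGI is the concentration that stops growth completely.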

Experiments:
Test in all cases: DTP human tumour cell line panel, 384-well format
NCI-H322M lung = tested on: NCI-H322M lung
NCI/ADR-RES ovarian = tested on: NCI/ADR-RES ovarian
LOX IMVI melanoma = tested on: LOX IMVI melanoma
CAKI-1 renal = tested on: CAKI-1 renal
NCI-H226 lung = tested on: NCI-H226 lung
SK-OV-3 ovarian = tested on: SK-OV-3 ovarian
HL-60(TB) leukemia = tested on: HL-60(TB) leukemia
MALME-3M melanoma = tested on: MALME-3M melanoma
MDA-MB-231 breast = tested on: MDA-MB-231 breast
SF-295 CNS = tested on: SF-295 CNS
DU-145 prostate = tested on: DU-145 prostate
SK-MEL-28 melanoma = tested on: SK-MEL-28 melanoma
SR leukemia = tested on: SR leukemia
SNB-75 CNS = tested on: SNB-75 CNS
A549 NSCLC = tested on: A549 NSCLC
HS 578T breast = tested on: HS 578T breast
OVCAR-3 ovarian = tested on: OVCAR-3 ovarian
COLO 205 colon = tested on: COLO 205 colon
HCT-15 colon = tested on: HCT-15 colon
SF-268 CNS = tested on: SF-268 CNS
HT29 colon = tested on: HT29 colon
KM12 colon = tested on: KM12 colon
HCT-116 colon = tested on: HCT-116 colon
BT-549 breast = tested on: BT-549 breast
TK-10 renal = tested on: TK-10 renal
MOLT-4 leukemia = tested on: MOLT-4 leukemia
A498 renal = tested on: A498 renal
HOP-92 NSCLC = tested on: HOP-92 NSCLC
ACHN renal = tested on: ACHN renal
SW-620 colon = tested on: SW-620 colon
NCI-H23 lung = tested on: NCI-H23 lung
CCRF-CEM leukemia = tested on: CCRF-CEM leukemia
IGROV1 ovarian = tested on: IGROV1 ovarian
UO-31 renal = tested on: UO-31 renal
M14 melanoma = tested on: M14 melanoma
OVCAR-8 ovarian = tested on: OVCAR-8 ovarian
RXF 393 renal = tested on: RXF 393 renal
EKVX NSCLC = tested on: EKVX NSCLC
SF-539 CNS = tested on: SF-539 CNS
PC-3 prostate = tested on: PC-3 prostate
SN12C renal = tested on: SN12C renal
OVCAR-4 ovarian = tested on: OVCAR-4 ovarian
K-562 leukemia = tested on: K-562 leukemia
MDA-MB-468 breast = tested on: MDA-MB-468 breast
SNB-19 CNS = tested on: SNB-19 CNS
UACC-257 melanoma = tested on: UACC-257 melanoma
HOP-62 NSCLC = tested on: HOP-62 NSCLC
HCC-2998 colon = tested on: HCC-2998 colon

In the case of `O=C(O)C1(Cc2cccc(Nc3nccs3)n2)CCC(Oc2cccc(Cl)c2F)CC1` (stereo unspecified), the GI50 (NCI-H322M lung) is reported as 16.5 µM, the TGI (NCI-H322M lung) is reported as 32.6 µM and the GI50 (NCI/ADR-RES ovarian) is reported as 329 nM. The TGI (NCI/ADR-RES ovarian) was 13.3 µM, the GI50 (LOX IMVI melanoma) was 10.3 µM and the TGI (LOX IMVI melanoma) was 22.1 µM. The GI50 (CAKI-1 renal) was 11.3 µM, the TGI (CAKI-1 renal) was 25.5 µM and the GI50 (NCI-H226 lung) was 3.06 µM. It also gave a TGI (NCI-H226 lung) of 20.1 µM, a GI50 (SK-OV-3 ovarian) of 11.5 µM and a TGI (SK-OV-3 ovarian) of 26.3 µM. The GI50 (HL-60(TB) leukemia) was 397 nM, the TGI (HL-60(TB) leukemia) was 1530 nM and the GI50 (MALME-3M melanoma) was 18.2 µM. The TGI (MALME-3M melanoma) was 37.4 µM, the GI50 (MDA-MB-231 breast) was 11.7 µM and the TGI (MDA-MB-231 breast) was 31.3 µM. For the same compound, the GI50 (SF-295 CNS) was 2020 nM, the TGI (SF-295 CNS) was 23.4 µM and the GI50 (DU-145 prostate) was 10.7 µM. It also gave a TGI (DU-145 prostate) of 26.2 µM, a GI50 (SK-MEL-28 melanoma) of 15.7 µM and a TGI (SK-MEL-28 melanoma) of 61.1 µM. For the same compound, the GI50 (SR leukemia) was 41.7 nM, the TGI (SR leukemia) was 105 nM and the GI50 (SNB-75 CNS) was 972 nM. For the same compound, the TGI (SNB-75 CNS) was 28.5 µM, the GI50 (A549 NSCLC) was 8.56 µM and the TGI (A549 NSCLC) was 24.2 µM. For the same compound, the GI50 (HS 578T breast) was 96.2 nM, the TGI (HS 578T breast) was 17.9 µM and the GI50 (OVCAR-3 ovarian) was 410 nM. It also gave a TGI (OVCAR-3 ovarian) of 18.2 µM, a GI50 (COLO 205 colon) of 609 nM and a TGI (COLO 205 colon) of 21.7 µM. The GI50 (HCT-15 colon) was 5.24 µM, the TGI (HCT-15 colon) was 21.3 µM and the GI50 (SF-268 CNS) was 300 nM. It also gave a TGI (SF-268 CNS) of 28 µM, a GI50 (HT29 colon) of 4.21 µM and a TGI (HT29 colon) of 17.1 µM. It also gave a GI50 (KM12 colon) of 124 nM, a TGI (KM12 colon) of 16.1 µM and a GI50 (HCT-116 colon) of 79.6 nM. For the same compound, the TGI (HCT-116 colon) was 17.6 µM, the GI50 (BT-549 breast) was 573 nM and the TGI (BT-549 breast) was 22.3 µM. It also gave a GI50 (TK-10 renal) of 13.3 µM, a TGI (TK-10 renal) of 31.3 µM and a GI50 (MOLT-4 leukemia) of 88.6 nM. It also gave a TGI (MOLT-4 leukemia) of 1050 nM, a GI50 (A498 renal) of 11.6 µM and a TGI (A498 renal) of 25 µM. For the same compound, the GI50 (HOP-92 NSCLC) was 10.4 µM, the TGI (HOP-92 NSCLC) was 22.9 µM and the GI50 (ACHN renal) was 14.6 µM. It also gave a TGI (ACHN renal) of 48.9 µM, a GI50 (SW-620 colon) of 1200 nM and a TGI (SW-620 colon) of 19.9 µM. For the same compound, the GI50 (NCI-H23 lung) was 562 nM, the TGI (NCI-H23 lung) was 20.8 µM and the GI50 (CCRF-CEM leukemia) was 249 nM. The TGI (CCRF-CEM leukemia) was 1100 nM, the GI50 (IGROV1 ovarian) was 13.4 µM and the TGI (IGROV1 ovarian) was 27.6 µM. It also gave a GI50 (UO-31 renal) of 14 µM, a TGI (UO-31 renal) of 27.7 µM and a GI50 (M14 melanoma) of 381 nM. For the same compound, the TGI (M14 melanoma) was 21.4 µM, the GI50 (OVCAR-8 ovarian) was 460 nM and the TGI (OVCAR-8 ovarian) was 20.3 µM. It also gave a GI50 (RXF 393 renal) of 358 nM, a TGI (RXF 393 renal) of 12.3 µM and a GI50 (EKVX NSCLC) of 10.1 µM. For the same compound, the TGI (EKVX NSCLC) was 24.5 µM, the GI50 (SF-539 CNS) was 3.09 µM and the TGI (SF-539 CNS) was 20.6 µM. It also gave a GI50 (PC-3 prostate) of 11.7 µM, a TGI (PC-3 prostate) of 24.7 µM and a GI50 (SN12C renal) of 11.1 µM. For the same compound, the TGI (SN12C renal) was 26.4 µM, the GI50 (OVCAR-4 ovarian) was 16.6 µM and the TGI (OVCAR-4 ovarian) was 58.5 µM. It also gave a GI50 (K-562 leukemia) of 313 nM, a TGI (K-562 leukemia) of 1270 nM and a GI50 (MDA-MB-468 breast) of 122 nM. It also gave a TGI (MDA-MB-468 breast) of 288 nM, a GI50 (SNB-19 CNS) of 12.1 µM and a TGI (SNB-19 CNS) of 29.6 µM. The GI50 (UACC-257 melanoma) was 19.6 µM, the TGI (UACC-257 melanoma) was 54.5 µM and the GI50 (HOP-62 NSCLC) was 1890 nM. The TGI (HOP-62 NSCLC) was 20.2 µM, the GI50 (HCC-2998 colon) was 16 µM and the TGI (HCC-2998 colon) was 29.7 µM.
